Data taken from PubChem BioAssay AID2060485 (Molecular Pharmacology Branch, DTP, NCI, 2025).

Test system: A375 multi-cell spheroids with HUVEC/MSC, viability
Test: Anticancer human tumor A375 cell line growth inhibition [GQUAD];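 note: spheroids exposed to compounds for seven days before readout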
Settings: for IC50: curve of first compound; for viability, T/C: stronger effect = lower value
Method in brief: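 Viability of tumor cells grown as complex spheroids with endothelial and stromal cells, exposed to drug combinations. Top concentration at or near clinical Cmax (else 10 microM), diluted in half-log increments.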

[1] = second compound 0.0316 µM, first compound 0.0316 µM
[2] = second compound 0.0316 µM, first compound 0.1 µM
[3] = second compound 0.0316 µM, first compound 0.316 µM
[4] = second compound 0.0316 µM, first compound 1 µM
[5] = second compound 0.0316 µM, first compound 3.16 µM
[6] = second compound 0.0316 µM, first compound 10 µM
[7] = second compound 0.1 µM, first compound 0.0316 µM
[8] = second compound 0.1 µM, first compound 0.1 µM
[9] = second compound 0.1 µM, first compound 0.316 µM
[10] = second compound 0.1 µM, first compound 1 µM
[11] = second compound 0.1 µM, first compound 3.16 µM
[12] = second compound 0.1 µM, first compound 10 µM
[13] = second compound 0.316 µM, first compound 0.0316 µM
[14] = second compound 0.316 µM, first compound 0.1 µM
[15] = second compound 0.316 µM, first compound 0.316 µM
[16] = second compound 0.316 µM, first compound 1 µM
[17] = second compound 0.316 µM, first compound 3.16 µM
[18] = second compound 0.316 µM, first compound 10 µM
[19] = second compound 1 µM, first compound 0.0316 µM
[20] = second compound 1 µM, first compound 0.1 µM
[21] = second compound 1 µM, first compound 0.316 µM
[22] = second compound 1 µM, first compound 1 µM
[23] = second compound 1 µM, first compound 3.16 µM
[24] = second compound 1 µM, first compound 10 µM
[25] = second compound 3.16 µM, first compound 0.0316 µM
[26] = second compound 3.16 µM, first compound 0.1 µM
[27] = second compound 3.16 µM, first compound 0.316 µM
[28] = second compound 3.16 µM, first compound 1 µM
[29] = second compound 3.16 µM, first compound 3.16 µM
[30] = second compound 3.16 µM, first compound 10 µM
[31] = second compound 10 µM, first compound 0.0316 µM
[32] = second compound 10 µM, first compound 0.1 µM
[33] = second compound 10 µM, first compound 0.316 µM
[34] = second compound 10 µM, first compound 1 µM
[35] = second compound 10 µM, first compound 3.16 µM
[36] = second compound 10 µM, first compound 10 µM

Nc1ccn(C2OC(CO)C(O)C2(F)F)c(=O)n1 (stereo not given) + Cc1[nH]c2ccc(F)cc2c1-c1nc2c3cccnc3c3ncccc3c2[nH]1
IC50 (second compound 0.0316 µM): < 31.6 nM
IC50 (second compound 0.1 µM): < 31.6 nM
IC50 (second compound 0.316 µM): < 31.6 nM
IC50 (second compound 1 µM): < 31.6 nM
IC50 (second compound 3.16 µM): < 31.6 nM
IC50 (second compound 10 µM): < 31.6 nM
viability, T/C [1]: 20.4%
viability, T/C [2]: 11%
viability, T/C [3]: 10.3%
viability, T/C [4]: 8.14%
viability, T/C [5]: 10.7%
viability, T/C [6]: 10.2%
viability, T/C [7]: 22.9%
viability, T/C [8]: 9.94%
viability, T/C [9]: 12%
viability, T/C [10]: 9.5%
viability, T/C [11]: 12.2%
viability, T/C [12]: 8.91%
viability, T/C [13]: 21.1%
viability, T/C [14]: 12.7%
viability, T/C [15]: 11.2%
viability, T/C [16]: 10.8%
viability, T/C [17]: 10.8%
viability, T/C [18]: 11.3%
viability, T/C [19]: 22.9%
viability, T/C [20]: 12.7%
viability, T/C [21]: 14.8%
viability, T/C [22]: 13.6%
viability, T/C [23]: 12.8%
viability, T/C [24]: 11.8%
viability, T/C [25]: 15.4%
viability, T/C [26]: 13.1%
viability, T/C [27]: 13%
viability, T/C [28]: 13.9%
viability, T/C [29]: 19%
viability, T/C [30]: 13.9%
viability, T/C [31]: 16.1%
viability, T/C [32]: 10.7%
viability, T/C [33]: 10.9%
viability, T/C [34]: 10.3%
viability, T/C [35]: 13.2%
viability, T/C [36]: 12%

CC(C)(O)C1CCC(Nc2ccc3ncc(-c4cccc(C(F)(F)F)c4)n3n2)CC1 (stereo not given) + Cc1[nH]c2ccc(F)cc2c1-c1nc2c3cccnc3c3ncccc3c2[nH]1
IC50 (second compound 0.0316 µM): > 10000 nM
IC50 (second compound 0.1 µM): > 10000 nM
IC50 (second compound 0.316 µM): > 10000 nM
IC50 (second compound 1 µM): > 10000 nM
IC50 (second compound 3.16 µM): 66.7 nM
IC50 (second compound 10 µM): 845 nM
viability, T/C [1]: 99.5%
viability, T/C [2]: 100%
viability, T/C [3]: 96.5%
viability, T/C [4]: 112%
viability, T/C [5]: 94.4%
viability, T/C [6]: 92.1%
viability, T/C [7]: 103%
viability, T/C [8]: 110%
viability, T/C [9]: 97.3%
viability, T/C [10]: 113%
viability, T/C [11]: 84.7%
viability, T/C [12]: 87.6%
viability, T/C [13]: 98.5%
viability, T/C [14]: 102%
viability, T/C [15]: 105%
viability, T/C [16]: 100%
viability, T/C [17]: 77.6%
viability, T/C [18]: 86.1%
viability, T/C [19]: 106%
viability, T/C [20]: 104%
viability, T/C [21]: 101%
viability, T/C [22]: 93.6%
viability, T/C [23]: 47.4%
viability, T/C [24]: 73.7%
viability, T/C [25]: 49.7%
viability, T/C [26]: 52.3%
viability, T/C [27]: 39%
viability, T/C [28]: 30.2%
viability, T/C [29]: 10.4%
viability, T/C [30]: 20.4%
viability, T/C [31]: 76.7%
viability, T/C [32]: 82.9%
viability, T/C [33]: 72.3%
viability, T/C [34]: 46.9%
viability, T/C [35]: 16.2%
viability, T/C [36]: 42.3%

Nc1ccn(C2OC(CO)C(O)C2(F)F)c(=O)n1 (stereo not given) + CN(C)c1ccc(Nc2c3ccc(NC(=O)CCN4CCCC4)cc3nc3cc(NC(=O)CCN4CCCC4)ccc23)cc1
IC50 (second compound 0.0316 µM): < 31.6 nM
IC50 (second compound 0.1 µM): < 31.6 nM
IC50 (second compound 0.316 µM): < 31.6 nM
IC50 (second compound 1 µM): < 31.6 nM
IC50 (second compound 3.16 µM): < 31.6 nM
IC50 (second compound 10 µM): < 31.6 nM
viability, T/C [1]: 13.1%
viability, T/C [2]: 5.96%
viability, T/C [3]: 5.05%
viability, T/C [4]: 6.71%
viability, T/C [5]: 7.93%
viability, T/C [6]: 7.84%
viability, T/C [7]: 12.4%
viability, T/C [8]: 6.04%
viability, T/C [9]: 6.62%
viability, T/C [10]: 6.98%
viability, T/C [11]: 7.52%
viability, T/C [12]: 8.82%
viability, T/C [13]: 13.4%
viability, T/C [14]: 5.96%
viability, T/C [15]: 6.92%
viability, T/C [16]: 7.41%
viability, T/C [17]: 8.24%
viability, T/C [18]: 9.65%
viability, T/C [19]: 11%
viability, T/C [20]: 6.99%
viability, T/C [21]: 6.31%
viability, T/C [22]: 6.93%
viability, T/C [23]: 7.59%
viability, T/C [24]: 10.1%
viability, T/C [25]: 13.2%
viability, T/C [26]: 6.34%
viability, T/C [27]: 6.54%
viability, T/C [28]: 7.74%
viability, T/C [29]: 8.41%
viability, T/C [30]: 9.18%
viability, T/C [31]: 11.4%
viability, T/C [32]: 5.96%
viability, T/C [33]: 6.62%
viability, T/C [34]: 6.28%
viability, T/C [35]: 9.34%
viability, T/C [36]: 7.97%

COc1cccc2c1C(=O)c1c(O)c3c(c(O)c1C2=O)CC(O)(C(=O)CO)CC3OC1CC(N)C(O)C(C)O1 (stereo not given) + CN(C)c1ccc(Nc2c3ccc(NC(=O)CCN4CCCC4)cc3nc3cc(NC(=O)CCN4CCCC4)ccc23)cc1
IC50 (second compound 0.0316 µM): 196 nM
IC50 (second compound 0.1 µM): 214 nM
IC50 (second compound 0.316 µM): 217 nM
IC50 (second compound 1 µM): 222 nM
IC50 (second compound 3.16 µM): 229 nM
IC50 (second compound 10 µM): 233 nM
viability, T/C [1]: 107%
viability, T/C [2]: 70.2%
viability, T/C [3]: 34%
viability, T/C [4]: 18.7%
viability, T/C [5]: 2.21%
viability, T/C [6]: 0.12%
viability, T/C [7]: 105%
viability, T/C [8]: 75.2%
viability, T/C [9]: 34.6%
viability, T/C [10]: 18.5%
viability, T/C [11]: 2.59%
viability, T/C [12]: 0.11%
viability, T/C [13]: 110%
viability, T/C [14]: 79.7%
viability, T/C [15]: 32.2%
viability, T/C [16]: 18.3%
viability, T/C [17]: 2.01%
viability, T/C [18]: 0.1%
viability, T/C [19]: 107%
viability, T/C [20]: 80.7%
viability, T/C [21]: 33.2%
viability, T/C [22]: 17.7%
viability, T/C [23]: 2.55%
viability, T/C [24]: 0.13%
viability, T/C [25]: 112%
viability, T/C [26]: 82%
viability, T/C [27]: 34.2%
viability, T/C [28]: 18.6%
viability, T/C [29]: 2.88%
viability, T/C [30]: 0.15%
viability, T/C [31]: 103%
viability, T/C [32]: 77.5%
viability, T/C [33]: 38.3%
viability, T/C [34]: 17.9%
viability, T/C [35]: 4.36%
viability, T/C [36]: 0.25%

O=C(c1cc(Cc2n[nH]c(=O)c3ccccc23)ccc1F)N1CCN(C(=O)C2CC2)CC1 + CN(C)c1ccc(Nc2c3ccc(NC(=O)CCN4CCCC4)cc3nc3cc(NC(=O)CCN4CCCC4)ccc23)cc1
IC50 (second compound 0.0316 µM): > 10000 nM
IC50 (second compound 0.1 µM): > 10000 nM
IC50 (second compound 0.316 µM): > 10000 nM
IC50 (second compound 1 µM): > 10000 nM
IC50 (second compound 3.16 µM): > 10000 nM
IC50 (second compound 10 µM): > 10000 nM
viability, T/C [1]: 104%
viability, T/C [2]: 95.7%
viability, T/C [3]: 113%
viability, T/C [4]: 99.9%
viability, T/C [5]: 103%
viability, T/C [6]: 81.1%
viability, T/C [7]: 104%
viability, T/C [8]: 102%
viability, T/C [9]: 103%
viability, T/C [10]: 100%
viability, T/C [11]: 102%
viability, T/C [12]: 75.6%
viability, T/C [13]: 101%
viability, T/C [14]: 101%
viability, T/C [15]: 102%
viability, T/C [16]: 105%
viability, T/C [17]: 97.6%
viability, T/C [18]: 77.6%
viability, T/C [19]: 97.1%
viability, T/C [20]: 102%
viability, T/C [21]: 93.8%
viability, T/C [22]: 103%
viability, T/C [23]: 102%
viability, T/C [24]: 86.8%
viability, T/C [25]: 100%
viability, T/C [26]: 97.5%
viability, T/C [27]: 100%
viability, T/C [28]: 101%
viability, T/C [29]: 103%
viability, T/C [30]: 73.6%
viability, T/C [31]: 100%
viability, T/C [32]: 96.4%
viability, T/C [33]: 98.8%
viability, T/C [34]: 103%
viability, T/C [35]: 92.9%
viability, T/C [36]: 66.7%
